Test results as given in article doi:10.1101/2025.05.06.651509v2 (biorxiv, 2026).

Key:
IGF2BP2 = IGF2BP2 (Homo sapiens, UniProt Q9Y6M1); assay: microscale thermophoresis; type: binding; details: room temperature; legend of Figure 4A prints 12 μM
TSC22D4 = target: T1, TSC22D4 (Homo sapiens, UniProt Q9Y3Q8); assay: microscale thermophoresis; type: binding; details: room temperature
T1 sequence (Q9Y3Q8 1-395): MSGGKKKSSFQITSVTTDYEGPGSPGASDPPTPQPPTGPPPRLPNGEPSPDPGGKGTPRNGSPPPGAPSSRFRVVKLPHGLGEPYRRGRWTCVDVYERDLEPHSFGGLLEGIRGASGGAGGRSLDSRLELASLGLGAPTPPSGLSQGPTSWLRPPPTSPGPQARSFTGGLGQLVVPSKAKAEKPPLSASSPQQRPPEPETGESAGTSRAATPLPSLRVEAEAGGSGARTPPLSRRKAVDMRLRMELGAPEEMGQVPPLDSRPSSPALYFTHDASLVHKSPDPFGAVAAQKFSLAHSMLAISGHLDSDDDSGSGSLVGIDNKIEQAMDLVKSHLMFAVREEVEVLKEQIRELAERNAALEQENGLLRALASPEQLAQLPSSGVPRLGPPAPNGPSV

Sequence of IGF2BP2 (Q9Y6M1 whole entry): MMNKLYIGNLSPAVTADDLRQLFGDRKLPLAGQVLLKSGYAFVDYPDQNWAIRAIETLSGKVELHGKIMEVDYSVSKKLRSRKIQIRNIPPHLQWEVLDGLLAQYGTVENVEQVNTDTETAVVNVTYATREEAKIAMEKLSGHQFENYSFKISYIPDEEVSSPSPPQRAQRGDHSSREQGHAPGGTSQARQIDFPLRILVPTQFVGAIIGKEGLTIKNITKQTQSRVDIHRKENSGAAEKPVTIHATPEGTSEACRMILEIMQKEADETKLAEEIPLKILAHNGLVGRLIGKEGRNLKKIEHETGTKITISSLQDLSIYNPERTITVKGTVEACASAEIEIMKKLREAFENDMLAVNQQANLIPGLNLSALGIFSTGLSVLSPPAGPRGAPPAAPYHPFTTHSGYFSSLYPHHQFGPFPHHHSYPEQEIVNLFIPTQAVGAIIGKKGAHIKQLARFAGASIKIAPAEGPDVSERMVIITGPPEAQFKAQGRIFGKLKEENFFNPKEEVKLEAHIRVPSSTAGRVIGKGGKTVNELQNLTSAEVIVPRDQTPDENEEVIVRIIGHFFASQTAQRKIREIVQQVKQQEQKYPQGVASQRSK

Kd (IGF2BP2): 8.2 µM
Kd (TSC22D4): ~464 µM
SMILES: OC[C@H]1OC(O)[C@H](O)[C@@H](O)[C@@H]1O (some centres unmarked) [glucose]
